Values of other authors as cited in publication PMC7400446, “Antimicrobial and Antifungal Activity of Rare Substituted 1,2,3-Thiaselenazoles and Corresponding Matched Pair 1,2,3-Dithiazoles” (Antibiotics, 2020).
Converted amounts (≈) assume the structure as drawn.

What was measured:
Details in all cases: cited from earlier work
[1] = test system: E. faecalis; set-up: method as in PMID 19036587, doi:10.1016/0960-894X(96)00062-5, doi:10.1016/0960-894X(96)00423-4, doi:10.1016/S0223-5234(98)80040-8
[2] = test system: L. monocytogenes; set-up: method as in PMID 19036587, doi:10.1016/0960-894X(96)00062-5, doi:10.1016/0960-894X(96)00423-4, doi:10.1016/S0223-5234(98)80040-8
[3] = test system: C. neoformans; set-up: method as in earlier work
[4] = test system: ASCT2 Transport; set-up: method as in PMID 19036587, PMID 23010140, PMID 28709952
[5] = test system: S. aureus; set-up: method as in PMID 19036587, doi:10.1016/0960-894X(96)00062-5, doi:10.1016/0960-894X(96)00423-4, doi:10.1016/S0223-5234(98)80040-8
[6] = test system: K562; set-up: method as in PMID 19036587, PMID 23010140, PMID 28709952
[7] = test system: L1210; set-up: method as in PMID 19036587, PMID 23010140, PMID 28709952

SMILES	MIC E. faecalis [1]	MIC L. monocytogenes [2]	MIC C. neoformans [3]	further results
COc1ccccc1/N=c1/ssnc1Cl [Compound 5]	16 µg/mL (≈ 61.8 µM)	16 µg/mL (≈ 61.8 µM)		
N#Cc1ccccc1/N=c1/ssnc1Cl [Compound 6]			8 µg/mL (≈ 31.5 µM)	
FC(F)(F)Oc1ccc(/N=c2/ssnc2Cl)cc1Cl [Compound 3]				IC50 [4]: 8.1 µM
Clc1nss/c1=N/c1ccccc1 [Compound 4]	16 µg/mL (≈ 70 µM)	16 µg/mL (≈ 70 µM)		MIC S. aureus [5]: 16 µg/mL (≈ 70 µM)
N#Cc1ncn(CCc2ccccc2)c1/N=c1/ssnc1Cl [Compound 2]				IC50 [6]: 4 µM; IC50 [7]: 3000 nM
COc1ccc(/N=c2/ssnc2Cl)cc1 [Compound 7]			8 µg/mL (≈ 30.9 µM)	
